Results published in ChEMBL document CHEMBL1201862, “PubChem BioAssay data set” (2004).
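Five concentrations, 48 hours, 96-well plates. The concentration for 50% growth inhibition is given as GI50.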 The source made the active and inactive calls. Rule as the data show it: active = GI50 up to about 1.1 µM and inactive = higher.

Assays:
Test in all cases: growth of human tumour cells (NCI), 48 h
[1] = system: 786-0
[2] = system: A498
[3] = system: A549
[4] = system: ACHN
[5] = system: CAKI-1
[6] = system: CCRF-CEM
[7] = system: COLO 205
[8] = system: DLD-1
[9] = system: DMS-114
[10] = system: EKVX
[11] = system: HCC 2998
[12] = system: HCT-116
[13] = system: HL-60
[14] = system: HOP-62
[15] = system: HOP-92
[16] = system: HT-29
[17] = system: IGROV-1
[18] = system: K562
[19] = system: KM-20L2
[20] = system: KM12
[21] = system: M14
[22] = system: M19-MEL
[23] = system: MOLT-4
[24] = system: Malme-3M
[25] = system: NCI-H23
[26] = system: NCI-H460
[27] = system: NCI-H522
[28] = system: OVCAR-3
[29] = system: OVCAR-4
[30] = system: OVCAR-5
[31] = system: OVCAR-8
[32] = system: RPMI-8226
[33] = system: RXF 393
[34] = system: SF-268
[35] = system: SF-295
[36] = system: SF-539
[37] = system: SK-MEL-28
[38] = system: SK-MEL-2
[39] = system: SK-MEL-5
[40] = system: SK-OV-3
[41] = system: SN12C
[42] = system: SNB-19
[43] = system: SR
[44] = system: SW-620
[45] = system: TK-10
[46] = system: UACC-257
[47] = system: UACC-62
[48] = system: UO-31
[49] = system: DMS-273
[50] = system: HCT-15
[51] = system: LOX IMVI
[52] = system: LXFL 529
[53] = system: NCI-H226
[54] = system: SNB-75
[55] = system: SNB-78
[56] = system: U-251
[57] = system: XF498
[58] = system: HOP-18

In the case of `CC(=O)Nc1ccc(S(=O)(=O)NN(C)S(=O)(=O)c2ccc(C)cc2)cc1`, the GI50 [1] is reported as > 100 µM (inactive), the GI50 [2] is reported as > 100 µM (inactive) and the GI50 [3] is reported as > 100 µM (inactive). For the same molecule, the GI50 [4] was > 100 µM (inactive), the GI50 [5] was > 100 µM (inactive) and the GI50 [6] was > 100 µM (inactive). The GI50 [7] was > 100 µM (inactive), the GI50 [8] was > 100 µM (inactive) and the GI50 [9] was > 100 µM (inactive). The GI50 [10] was > 100 µM (inactive), the GI50 [11] was > 100 µM (inactive) and the GI50 [12] was > 100 µM (inactive). For the same molecule, the GI50 [13] was > 100 µM (inactive), the GI50 [14] was > 100 µM (inactive) and the GI50 [15] was > 100 µM (inactive). For the same molecule, the GI50 [16] was > 100 µM (inactive), the GI50 [17] was > 100 µM (inactive) and the GI50 [18] was > 100 µM (inactive). For the same molecule, the GI50 [19] was > 100 µM (inactive), the GI50 [20] was > 100 µM (inactive) and the GI50 [21] was > 100 µM (inactive). The GI50 [22] was > 100 µM (inactive), the GI50 [23] was > 100 µM (inactive) and the GI50 [24] was > 100 µM (inactive). The GI50 [25] was > 100 µM (inactive), the GI50 [26] was > 100 µM (inactive) and the GI50 [27] was > 100 µM (inactive). The GI50 [28] was > 100 µM (inactive), the GI50 [29] was > 100 µM (inactive) and the GI50 [30] was > 100 µM (inactive). For the same molecule, the GI50 [31] was > 100 µM (inactive), the GI50 [32] was > 100 µM (inactive) and the GI50 [33] was > 100 µM (inactive). The GI50 [34] was > 100 µM (inactive), the GI50 [35] was > 100 µM (inactive) and the GI50 [36] was > 100 µM (inactive). For the same molecule, the GI50 [37] was > 100 µM (inactive), the GI50 [38] was > 100 µM (inactive) and the GI50 [39] was > 100 µM (inactive). The GI50 [40] was > 100 µM (inactive), the GI50 [41] was > 100 µM (inactive) and the GI50 [42] was > 100 µM (inactive). For the same molecule, the GI50 [43] was > 100 µM (inactive), the GI50 [44] was > 100 µM (inactive) and the GI50 [45] was > 100 µM (inactive). The GI50 [46] was > 100 µM (inactive), the GI50 [47] was > 100 µM (inactive) and the GI50 [48] was > 100 µM (inactive).
`CC(=O)NC1=C(NCC(C)(C)C)C(=O)c2ccccc2C1=O` was tested, and the GI50 [1] was > 100 µM (inactive), the GI50 [3] was > 100 µM (inactive) and the GI50 [4] was 26.9 µM (inactive). For the same molecule, the GI50 [6] was 38.5 µM (inactive), the GI50 [7] was 39.3 µM (inactive) and the GI50 [8] was 99.5 µM (inactive). The GI50 [49] was > 100 µM (inactive), the GI50 [10] was 76.9 µM (inactive) and the GI50 [11] was > 100 µM (inactive). For the same molecule, the GI50 [12] was 33.7 µM (inactive), the GI50 [50] was 55.3 µM and the GI50 [13] was 32.1 µM (inactive). For the same molecule, the GI50 [14] was > 100 µM (inactive), the GI50 [16] was > 100 µM (inactive) and the GI50 [17] was > 100 µM (inactive). For the same molecule, the GI50 [18] was 38.2 µM (inactive), the GI50 [19] was 57.8 µM (inactive) and the GI50 [20] was 82.6 µM (inactive). The GI50 [51] was 66.8 µM (inactive), the GI50 [52] was > 100 µM (inactive) and the GI50 [21] was > 100 µM (inactive). For the same molecule, the GI50 [22] was 21.1 µM (inactive), the GI50 [23] was 57.3 µM (inactive) and the GI50 [24] was 34.3 µM (inactive). For the same molecule, the GI50 [53] was > 100 µM (inactive), the GI50 [25] was 56.5 µM (inactive) and the GI50 [26] was 98.4 µM (inactive). The GI50 [27] was 18.9 µM (inactive), the GI50 [28] was 55.2 µM (inactive) and the GI50 [29] was > 100 µM (inactive). The GI50 [31] was 70.6 µM (inactive), the GI50 [33] was 37 µM (inactive) and the GI50 [34] was > 100 µM (inactive). The GI50 [35] was > 100 µM (inactive), the GI50 [36] was 32.9 µM (inactive) and the GI50 [37] was > 100 µM (inactive). The GI50 [38] was 69 µM (inactive), the GI50 [39] was 40.2 µM (inactive) and the GI50 [40] was > 100 µM (inactive). For the same molecule, the GI50 [41] was > 100 µM (inactive), the GI50 [42] was > 100 µM (inactive) and the GI50 [54] was 96.6 µM (inactive). For the same molecule, the GI50 [55] was 86.1 µM (inactive), the GI50 [43] was > 100 µM (inactive) and the GI50 [44] was 66.5 µM (inactive). The GI50 [45] was > 100 µM (inactive), the GI50 [56] was 65 µM (inactive) and the GI50 [46] was 50.2 µM (inactive). The GI50 [47] was 39 µM (inactive), the GI50 [48] was 46.3 µM (inactive) and the GI50 [57] was 25.8 µM (inactive).
In the case of `COc1cc(C2c3cc4c(cc3[C@@H](NCCN3CCOCC3)C3COC(=O)[C@H]23)OCO4)cc(OC)c1O` (some centres not stated), the GI50 [1] is reported as 2.1 µM (inactive), the GI50 [5] is reported as 2.08 µM (inactive) and the GI50 [8] is reported as 5.45 µM (inactive). For the same molecule, the GI50 [49] was 0.805 µM (active), the GI50 [10] was 16.4 µM (inactive) and the GI50 [11] was 2.44 µM (inactive). For the same molecule, the GI50 [12] was 2.86 µM (inactive), the GI50 [50] was 2.81 µM and the GI50 [58] was 4.52 µM (inactive). For the same molecule, the GI50 [14] was 0.782 µM (active), the GI50 [15] was 1.31 µM (inactive) and the GI50 [16] was 5.73 µM (inactive). For the same molecule, the GI50 [17] was 5.52 µM (inactive), the GI50 [18] was 3.01 µM (inactive) and the GI50 [19] was 5.2 µM (inactive). The GI50 [20] was 4.01 µM (inactive), the GI50 [51] was 1.77 µM (inactive) and the GI50 [52] was > 17.5 µM (inactive). The GI50 [21] was 3.98 µM (inactive), the GI50 [24] was 3.76 µM (inactive) and the GI50 [27] was 3.16 µM (inactive). The GI50 [28] was 4.13 µM (inactive), the GI50 [29] was > 17.5 µM (inactive) and the GI50 [31] was 3.05 µM (inactive). For the same molecule, the GI50 [33] was 2.9 µM (inactive), the GI50 [34] was 2.06 µM (inactive) and the GI50 [35] was 2.49 µM (inactive). For the same molecule, the GI50 [36] was 0.993 µM (active), the GI50 [37] was 3.66 µM (inactive) and the GI50 [38] was 4.89 µM (inactive). For the same molecule, the GI50 [42] was 4.89 µM (inactive), the GI50 [55] was > 17.5 µM (inactive) and the GI50 [44] was 2.08 µM (inactive). For the same molecule, the GI50 [45] was 5.56 µM (inactive), the GI50 [56] was 1.26 µM (inactive) and the GI50 [46] was 4.4 µM (inactive). The GI50 [47] was 2.09 µM (inactive) and the GI50 [48] was 2.94 µM (inactive).
